# Assays:
# [1] = test system: PC9 cells; assay: Growth inhibition of PC9 cells over expressing E63K mutant NRAS (sytox green); assay type: cell-based, human; conditions: 100 nM AZD9291 or 300 nM gefitinib, 96 hours, vs control construct
# Description: PC9 cells were transfected with control DNA construct, pcDNA 3.1+ control, or a construct designed to express E63K mutant NRAS, pcDNA 3.1+/NRAS E63K, (Life Technologies Ltd.). For 96 hour expression MaxCyte transfection technology was used to electroporate the PC9 cells. PC9 cells were passaged the day before the transfection. On the day of the transfection cells were harvested and resuspended at 9×10^7 cells per 600 μL MaxCyte buffer. 100 μL of cell suspension was transferred to a MaxCyte cuvette and the cells electroporated with 20 μg DNA construct. Following electroporation the cells for each condition were transferred to a 6 well plate and incubated at 37° C. for 30 minutes after which they were seeded in a 6 well plate at 4×10^5 cells per well. Following over night incubation the cells were harvested and replated in 384 well plate at 1000 cells/well. […] A live cell number was determined using the sytox green method as described hereinbefore.
# [2] = test system: active NRAS; assay: RAS activation assay (GST-RAS binding domain pull down, western blot) in resistant PC-9 cells with E63K or G12V NRAS; assay type: cell-based, human; conditions: mutant NRAS (E63K or G12V) resistant PC-9 cells; 160 nM for 2 hours
# Description: (§1) PC9 and PC9 AZD9291 resistant cells were cultured in media containing no AZD9291 for 4 days. Cells were then plated into 6 well plates and serum starved overnight. The following day the cells were treated for 2 hours with media supplemented with or without 160 nM AZD9291. Lysates were prepared and active NRAS isolated using a GST-RAS binding domain pull down assay (Thermo Scientific). Pull down lysates were analysed by western blot using an NRAS specific antibody.
# [3] = test system: active NRAS; assay: RAS activation assay (GST-RAS binding domain pull down, western blot) in parental PC-9 cells; assay type: cell-based, human; conditions: 160 nM for 2 hours
# Description: as §1
# [4] = test system: PC9 cells; assay: cells; conditions: Homo sapiens, PC-9, read-out: concentration required to inhibit growth of PC9 cells by 50% (EC50)
# Description: PC9 cells were seeded at 5×10^5 cells in multiple fresh T75 flasks in growth media and incubated at 37° C., 5% CO2.
# [5] = test system: PC9_9291R_3 (NRAS G12V); assay: Sytox Green live cell number assay, selumetinib titration; assay type: cell-based; conditions: Homo sapiens, with originating EGFR inhibitor, 72 hours
# Description: (§2) The effects of a panel of canonical pathway inhibitors on cell growth and survival was measured using a cell assay using Sytox Green staining as an end point.
# (§3) Cell lines were plated in 384 well plates at 1000 cells per well in 70 μL per well of RPMI media containing 10% foetal calf serum, 2 mM L-glutamine and originating EGFR inhibitor.
# (§4) The cells were allowed to attach overnight at 37° C., 5% CO2. The following day titrations of test compound were added to the assay plates using an Echo Liquid Handler Labcyte (California, USA) and the treated cells incubated for a further 72 hours at 37° C., 5% CO2. Each compound was tested as an 11 point dose response with a top concentration of 10 μM and 1 in 3 dilutions. Following 72 hours incubation of the compound treated plates, 5 μL of 2 μM SYTOX Green Nucleic Acid Stain, Life Technologies (Paisley, UK) was added per well and the plates incubated at room temperature for one hour. The number of fluorescent cells per well was measured on the Acumen TTP LabTech Ltd. (Melbourn, UK) this number representing the dead cell count. 10 μL of 0.25% Saponin Sigma (Dorset, UK) was added per well and the plates incubated over night at room temperature. The total number of fluorescent cells per well was acquired on the Acumen. The number of dead cells was subtracted from the total number of cells and the live cell number plotted to determine EC50 values from dose response curves.
# [6] = test system: PC9_IR4_9291R_2 (NRAS WT gain); assay: as above; assay type: cell-based; conditions: Homo sapiens, with originating EGFR inhibitor, 72 hours
# Description: as §2, §3, §4
# [7] = test system: PC9_9291R_LOB1 (NRAS E63K); assay: as above; assay type: cell-based; conditions: Homo sapiens, with originating EGFR inhibitor, 72 hours
# Description: as §2, §3, §4
# [8] = test system: PC9_IR4_9291R_3 (NRAS WT gain); assay: as above; assay type: cell-based; conditions: Homo sapiens, with originating EGFR inhibitor, 72 hours
# Description: as §2, §3, §4
# [9] = test system: PC9_afatinib_5 (NRAS gain); assay: as above; assay type: cell-based; conditions: Homo sapiens, with originating EGFR inhibitor, 72 hours
# Description: as §2, §3, §4
# [10] = test system: PC9 (NRAS WT); assay: as above; assay type: cell-based; conditions: Homo sapiens, PC9 (NRAS WT) parental, 72 hours
# Description: as §2, §3, §4
# [11] = test system: PC9_IRGM (NRAS WT); assay: as above; assay type: cell-based; conditions: Homo sapiens, with originating EGFR inhibitor, 72 hours
# Description: as §2, §3, §4
# [12] = test system: PC9_IRLR (NRAS E63K); assay: as above; assay type: cell-based; conditions: Homo sapiens, with originating EGFR inhibitor, 72 hours
# Description: as §2, §3, §4
# [13] = test system: PC9_9291R_LOB3 (NRAS G12R); assay: as above; assay type: cell-based, human
# Description: as §2, §3
# as §4, with “The total number of fluorescent cells per well was acquired on the Acumen. The number of dead cells was subtracted from the total number of cells and the live cell number plotted to determine EC50 values from dose response curves.” left out
# An AZD9291-resistant PC9 cell line was prepared using standard methods as illustrated hereinbefore. A range of such resistant cell populations were cultured and analysed.
# [14] = test system: NRAS; assay: siRNA knockdown, western blot of NRAS expression; assay type: cell-based, human; conditions: 20 nM siRNA, 48 hours; PC9, PC9 gefitinib-resistant and PC9 AZD9291-resistant cells
# Description: (§5) PC9, PC9 gefitinib-resistant and PC9 AZD9291-resistant cells were plated at 5×10^5 cells per well in 6 well plates in 2 mls per well of growth media supplemented with EGFR inhibitor where appropriate (resistant cells were grown in the presence of EGFR inhibitor). The cells were incubated over night at 37° C., 5% CO2. The following day the cells were treated with a final concentration of 20 nM of siRNA from Dharmacon as detailed in Table 7.
# (§6) Each siRNA construct was prepared in Optimem (Life Technologies) media using RNA iMAX (Invitrogen) as transfection reagent. For each well: 2.5 μl of siRNA (20 μM stock) was mixed with 250 μL of Optimem; and 2.5 μL of RNA iMAX was mixed with 250 μL of Optimem. The 2 solutions were mixed together by pipetting and allowed to stand for 5 minutes at room temperature. The final 500 μL solution was then pipetted into the appropriate 2 mL of growth media in the 6 well plates. The plates were swirled gently and further incubated over night at 37° C., 5% CO2. The following day each well of cells was harvested and the cell number counted.
# (§7) The following day, lysates were prepared from the 6 well plates so that knockdown of protein expression could be assessed following 48 hours treatment with siRNA. The lysates were analysed by western blot for levels of: phosphorylated EGFR, phosphorylated ERK, NRAS and KRAS. […]
# [15] = test system: KRAS; assay: siRNA knockdown, western blot of KRAS expression; assay type: cell-based, human; conditions: 20 nM siRNA, 48 hours; PC9, PC9 gefitinib-resistant and PC9 AZD9291-resistant cells
# Description: as §5, §6, §7
compound,measurement,setting,value
"C=CC(=O)Nc1cc(Nc2nccc(-c3cn(C)c4ccccc34)n2)c(OC)cc1N(C)CCN(C)C [AZD9291, N-(2-{2-dimethylaminoethyl-methylamino}-4-methoxy-5-{[4-(1-methylindol-3-yl)pyrimidin-2-yl]amino}phenyl)prop-2-enamide]",cell growth inhibition when cells over expressed E63K mutant NRAS,[1],reduced
same,active NRAS,[2],not associated with corresponding decrease in active NRAS
same,phosphorylated EGFR,[2],decrease
same,active NRAS,[3],decrease
same,phosphorylated EGFR,[3],decrease
same,EC50,[4],10 nM
"Cn1cnc2c(F)c(Nc3ccc(Br)cc3Cl)c(C(=O)NOCCO)cc21 [Selumetinib, 5-[(4-bromo-2-chlorophenyl)amino]-4-fluoro-N-(2-hydroxyethoxy)-1-methyl-1H-benzimidazole-6-carboxamide]",EC50,[5],1400 nM
same,EC50,[6],540 nM
same,EC50,[7],167 nM
same,EC50,[8],130 nM
same,EC50,[9],890 nM
same,EC50,[10],6950 nM
same,EC50,[11],7240 nM
same,EC50,[12],620 nM
same,increased sensitivity as compared to the parental cell line,[13]; AZD9291-resistant PC9 population with NRAS G12R vs parental cell line,> 5 fold
same,EC50,"[13]; Homo sapiens, PC9_9291R_LOB3 (NRAS G12R), with originating EGFR inhibitor, 72 hours",140 nM
"KRAS_1: siRNA from Dharmacon, J-005069-10, sequence GAAGUUAUGGAAUUCCUUU, SEQ ID NO: 16 (listed as RNA, chemistry not given here; listed as Homo sapiens)",NRAS expression (western blot),[14],no affect
same,KRAS expression (western blot),[15],knockdown

# Reference: patent publication US20250108050A1, “COMBINATION OF EGFR INHIBITOR AND MEK INHIBITOR FOR USE IN THE TREATMENT OF NRAS MUTATED CANCER” (ASTRAZENECA AB, priority 2014, published 2025)
